Laboratory results taken from BindingDB's records for doi:10.1016/s0960-894x(99)00004-9 (Smithkline Beecham Pharmaceuticals, 1999).

Experiments:
[1] = Inhibitory activity against cytomegalovirus (CMV) protease was determined using quenched fluorescence assay
[2] = Inhibitory activity against Varicella Zoster Virus (VZV) protease was determined using quenched fluorescence assay

Structure (SMILES)	IC50 [1]	IC50 [2]
Cc1cc(/C=C/C(=O)N[C@@H](C)c2nc3scc(C)c3c(=O)o2)c(C)s1 [(E)-3-(2,5-Dimethyl-thiophen-3-yl)-N-[(S)-1-(5-methyl-4-oxo-4H-thieno[2,3-d][1,3]oxazin-2-yl)-ethyl]-acrylamide]	230 nM	7 nM
Cc1csc2nc([C@H](C)NC(=O)/C=C/c3c(Cl)cccc3Cl)oc(=O)c12 [(E)-3-(2,6-Dichloro-phenyl)-N-[(S)-1-(5-methyl-4-oxo-4H-thieno[2,3-d][1,3]oxazin-2-yl)-ethyl]-acrylamide]	> 34000 nM	10 nM
Cc1csc2nc([C@H](C)NC(=O)/C=C/c3c(F)cccc3F)oc(=O)c12 [(E)-3-(2,6-Difluoro-phenyl)-N-[(S)-1-(5-methyl-4-oxo-4H-thieno[2,3-d][1,3]oxazin-2-yl)-ethyl]-acrylamide]	1700 nM	60 nM
COc1cccc(OC)c1/C=C/C(=O)N[C@@H](C)c1nc2scc(C)c2c(=O)o1 [(E)-3-(2,6-Dimethoxy-phenyl)-N-[(S)-1-(5-methyl-4-oxo-4H-thieno[2,3-d][1,3]oxazin-2-yl)-ethyl]-acrylamide]	21000 nM	180 nM
Cc1csc2nc([C@H](C)NC(=O)/C=C/c3ccccc3Br)oc(=O)c12 [(E)-3-(2-Bromo-phenyl)-N-[(S)-1-(5-methyl-4-oxo-4H-thieno[2,3-d][1,3]oxazin-2-yl)-ethyl]-acrylamide]	380 nM	39 nM
Cc1csc2nc([C@H](C)NC(=O)/C=C/c3ccsc3Br)oc(=O)c12 [(E)-3-(2-Bromo-thiophen-3-yl)-N-[(S)-1-(5-methyl-4-oxo-4H-thieno[2,3-d][1,3]oxazin-2-yl)-ethyl]-acrylamide]	620 nM	51 nM
Cc1csc2nc([C@H](C)NC(=O)/C=C/c3ccc(O)cc3Cl)oc(=O)c12 [(E)-3-(2-Chloro-4-hydroxy-phenyl)-N-[(S)-1-(5-methyl-4-oxo-4H-thieno[2,3-d][1,3]oxazin-2-yl)-ethyl]-acrylamide]	–	15 nM
Cc1csc2nc([C@H](C)NC(=O)/C=C/c3c(F)cccc3Cl)oc(=O)c12 [(E)-3-(2-Chloro-6-fluoro-phenyl)-N-[(S)-1-(5-methyl-4-oxo-4H-thieno[2,3-d][1,3]oxazin-2-yl)-ethyl]-acrylamide]	2000 nM	36 nM
Cc1csc2nc([C@H](C)NC(=O)/C=C/c3ccccc3Cl)oc(=O)c12 [(E)-3-(2-Chloro-phenyl)-N-[(S)-1-(5-methyl-4-oxo-4H-thieno[2,3-d][1,3]oxazin-2-yl)-ethyl]-acrylamide]	380 nM	35 nM
CCOc1ccccc1/C=C/C(=O)N[C@@H](C)c1nc2scc(C)c2c(=O)o1 [(E)-3-(2-Ethoxy-phenyl)-N-[(S)-1-(5-methyl-4-oxo-4H-thieno[2,3-d][1,3]oxazin-2-yl)-ethyl]-acrylamide]	510 nM	15 nM
COc1cc(/C=C/C(=O)N[C@@H](C)c2nc3scc(C)c3c(=O)o2)cc(OC)c1 [(E)-3-(3,5-Dimethoxy-phenyl)-N-[(S)-1-(5-methyl-4-oxo-4H-thieno[2,3-d][1,3]oxazin-2-yl)-ethyl]-acrylamide]	8500 nM	21 nM
Cc1csc2nc([C@H](C)NC(=O)/C=C/c3sccc3Br)oc(=O)c12 [(E)-3-(3-Bromo-thiophen-2-yl)-N-[(S)-1-(5-methyl-4-oxo-4H-thieno[2,3-d][1,3]oxazin-2-yl)-ethyl]-acrylamide]	1110 nM	58 nM
Cc1csc2nc([C@H](C)NC(=O)/C=C/c3cccc(Cl)c3)oc(=O)c12 [(E)-3-(3-Chloro-phenyl)-N-[(S)-1-(5-methyl-4-oxo-4H-thieno[2,3-d][1,3]oxazin-2-yl)-ethyl]-acrylamide]	–	42 nM
Cc1csc2nc([C@H](C)NC(=O)/C=C/c3cc(Br)cs3)oc(=O)c12 [(E)-3-(4-Bromo-thiophen-2-yl)-N-[(S)-1-(5-methyl-4-oxo-4H-thieno[2,3-d][1,3]oxazin-2-yl)-ethyl]-acrylamide]	1120 nM	33 nM
Cc1csc2nc([C@H](C)NC(=O)/C=C/c3ccc(N(C)C)cc3)oc(=O)c12 [(E)-3-(4-Dimethylamino-phenyl)-N-[(S)-1-(5-methyl-4-oxo-4H-thieno[2,3-d][1,3]oxazin-2-yl)-ethyl]-acrylamide]	1800 nM	38 nM
Cc1csc2nc([C@H](C)NC(=O)/C=C/c3ccc(C=O)cc3)oc(=O)c12 [(E)-3-(4-Formyl-phenyl)-N-[(S)-1-(5-methyl-4-oxo-4H-thieno[2,3-d][1,3]oxazin-2-yl)-ethyl]-acrylamide]	2400 nM	94 nM
Cc1csc2nc([C@H](C)NC(=O)/C=C/c3ccc(Br)o3)oc(=O)c12 [(E)-3-(5-Bromo-furan-2-yl)-N-[(S)-1-(5-methyl-4-oxo-4H-thieno[2,3-d][1,3]oxazin-2-yl)-ethyl]-acrylamide]	180 nM	41 nM

Structure (SMILES)	IC50 [1]	IC50 [2]
Cc1csc2nc([C@H](C)NC(=O)/C=C/c3ccc(Br)s3)oc(=O)c12 [(E)-3-(5-Bromo-thiophen-2-yl)-N-[(S)-1-(5-methyl-4-oxo-4H-thieno[2,3-d][1,3]oxazin-2-yl)-ethyl]-acrylamide]	210 nM	8 nM
Cc1csc2nc([C@H](C)NC(=O)/C=C/c3ccc(Cl)s3)oc(=O)c12 [(E)-3-(5-Chloro-thiophen-2-yl)-N-[(S)-1-(5-methyl-4-oxo-4H-thieno[2,3-d][1,3]oxazin-2-yl)-ethyl]-acrylamide]	280 nM	17 nM
Cc1csc2nc([C@H](C)NC(=O)/C=C/c3cccn3C)oc(=O)c12 [(E)-N-[(S)-1-(5-Methyl-4-oxo-4H-thieno[2,3-d][1,3]oxazin-2-yl)-ethyl]-3-(1-methyl-1H-pyrrol-2-yl)-acrylamide]	220 nM	29 nM
Cc1csc2nc([C@H](C)NC(=O)/C=C/c3ccccc3[N+](=O)[O-])oc(=O)c12 [(E)-N-[(S)-1-(5-Methyl-4-oxo-4H-thieno[2,3-d][1,3]oxazin-2-yl)-ethyl]-3-(2-nitro-phenyl)-acrylamide]	2200 nM	76 nM
Cc1ccsc1/C=C/C(=O)N[C@@H](C)c1nc2scc(C)c2c(=O)o1 [(E)-N-[(S)-1-(5-Methyl-4-oxo-4H-thieno[2,3-d][1,3]oxazin-2-yl)-ethyl]-3-(3-methyl-thiophen-2-yl)-acrylamide]	670 nM	290 nM
Cc1csc2nc([C@H](C)NC(=O)/C=C/c3ccc([N+](=O)[O-])cc3)oc(=O)c12 [(E)-N-[(S)-1-(5-Methyl-4-oxo-4H-thieno[2,3-d][1,3]oxazin-2-yl)-ethyl]-3-(4-nitro-phenyl)-acrylamide]	3600 nM	60 nM
Cc1ccc(/C=C/C(=O)N[C@@H](C)c2nc3scc(C)c3c(=O)o2)s1 [(E)-N-[(S)-1-(5-Methyl-4-oxo-4H-thieno[2,3-d][1,3]oxazin-2-yl)-ethyl]-3-(5-methyl-thiophen-2-yl)-acrylamide]	580 nM	33 nM
Cc1csc2nc([C@H](C)NC(=O)/C=C/c3ccc([N+](=O)[O-])s3)oc(=O)c12 [(E)-N-[(S)-1-(5-Methyl-4-oxo-4H-thieno[2,3-d][1,3]oxazin-2-yl)-ethyl]-3-(5-nitro-thiophen-2-yl)-acrylamide]	900 nM	54 nM
Cc1ccccc1/C=C/C(=O)N[C@@H](C)c1nc2scc(C)c2c(=O)o1 [(E)-N-[(S)-1-(5-Methyl-4-oxo-4H-thieno[2,3-d][1,3]oxazin-2-yl)-ethyl]-3-o-tolyl-acrylamide]	–	36 nM
Cc1csc2nc([C@H](C)NC(=O)/C=C(\c3ccccc3)c3cccs3)oc(=O)c12 [(E)-N-[(S)-1-(5-Methyl-4-oxo-4H-thieno[2,3-d][1,3]oxazin-2-yl)-ethyl]-3-phenyl-3-thiophen-2-yl-acrylamide]	300 nM	16 nM
Cc1csc2nc([C@H](C)NC(=O)/C=C/c3ccccc3)oc(=O)c12 [(E)-N-[(S)-1-(5-Methyl-4-oxo-4H-thieno[2,3-d][1,3]oxazin-2-yl)-ethyl]-3-phenyl-acrylamide]	500 nM	38 nM
Cc1csc2nc([C@H](C)NC(=O)/C=C/c3ccccn3)oc(=O)c12 [(E)-N-[(S)-1-(5-Methyl-4-oxo-4H-thieno[2,3-d][1,3]oxazin-2-yl)-ethyl]-3-pyridin-2-yl-acrylamide]	1240 nM	170 nM
Cc1csc2nc([C@H](C)NC(=O)/C=C/c3ccnc4ccccc34)oc(=O)c12 [(E)-N-[(S)-1-(5-Methyl-4-oxo-4H-thieno[2,3-d][1,3]oxazin-2-yl)-ethyl]-3-quinolin-4-yl-acrylamide]	1100 nM	19 nM
Cc1csc2nc([C@H](C)NC(=O)/C=C/c3ccsc3)oc(=O)c12 [(E)-N-[(S)-1-(5-Methyl-4-oxo-4H-thieno[2,3-d][1,3]oxazin-2-yl)-ethyl]-3-thiophen-3-yl-acrylamide]	–	89 nM
Cc1csc2nc([C@H](C)NC(=O)C=C(c3cccs3)c3cccs3)oc(=O)c12 [N-[(S)-1-(5-Methyl-4-oxo-4H-thieno[2,3-d][1,3]oxazin-2-yl)-ethyl]-3,3-di-thiophen-2-yl-acrylamide]	250 nM	42 nM
Cc1csc2nc([C@H](C)NC(=O)C=C(c3ccccc3)c3ccccc3)oc(=O)c12 [N-[(S)-1-(5-Methyl-4-oxo-4H-thieno[2,3-d][1,3]oxazin-2-yl)-ethyl]-3,3-diphenyl-acrylamide]	910 nM	37 nM
